# Assay results as given in US8501911B2, “Methods of reducing inflammation and mucus hypersecretion” (Biomarck Pharmaceuticals, Ltd, priority 1999, dated 2013).
# Several values for one entry are separate records, joined by “and”; a condition that tells them apart may be missing. Identical values can stand only once. Residues, ends and D or L forms follow the SMILES beside them. *: point of attachment. Myristoyl = CCCCCCCCCCCCCC(=O)*
# Assays:
# [1] = system: LPS-primed canine neutrophils; test: MPO secretion from LPS-primed canine neutrophils; assay type: cell-based
# Method: Results-I-11 and Results-I-12 show MPO secretion from LPS-primed human neutrophils as a model for humans, and Results-I-13, Results-I-14, and Results-I-15 show MPO secretion from LPS-primed canine neutrophils as a model for canines. In all of these experiments, isolated neutrophils were stimulated with LPS at a concentration of 1×10^−6 M for 10 minutes at 37° C. prior to adding the stimuli. The LPS primes the cells so they can respond to a secretagogue.
# In another comparative experiment, when absorbance was monitored at 450 nm while observing MPO secretion from LPS-primed canine neutrophils, Results-I-13 were obtained as follows.
# In another comparative experiment, when absorbance was monitored at 450 nm while observing MPO secretion from LPS-primed canine neutrophils, Results-I-14 were obtained as follows.
# In another comparative experiment, when absorbance was monitored at 450 nm while observing MPO secretion from LPS-primed canine neutrophils, Results-I-15 were obtained as follows.
# Isolation of PMNs from canine blood—The steps involved in isolating PMN include collecting 10 ml ACD anticoagulated blood; then layering 5 ml on 3.5 ml PMN isolation media while ensuring that the PMN isolation media (IM) was at room temperature (RI). Next, the blood was centrifuged at room temperature for 30′, 550×g at 1700 RPMs. The low lower white band was transferred into a 15 ml conical centrifuge tube (CCFT). Next, 2V HESS with 10% fetal bovine serum […] was added and centrifuged at room temperature for 10′, 400×g at 1400 RPMs. The pellet was then resuspended in 5 ml 1-1ESS with PBS. The cell suspension was added to 50 ml CCFT containing 20 ml of ice cold 0.88% NH4 Cland inverted two to three times. […]
# MPO Colorimetric Enzyme Assay—Samples were assayed for MPO activity in 96 well round bottom microtiter plates using a sandwich ELISA kit (R & D Systems, Minneapolis, Minn.). […] After mixing, the assay mixture was incubated at room temperature for 5 minutes, and MPO enzyme activity determined spectrophotometrically at […]. […]
# canine neutrophils = test: MPO secretion from isolated canine neutrophils stimulated with PMA+8-Br-cGMP; assay type: cell-based
# Method: Isolation of PMNs from canine blood—The steps involved in isolating PMN include collecting 10 ml ACD anticoagulated blood; then layering 5 ml on 3.5 ml PMN isolation media while ensuring that the PMN isolation media (IM) was at room temperature (RI). Next, the blood was centrifuged at room temperature for 30′, 550×g at 1700 RPMs. The low lower white band was transferred into a 15 ml conical centrifuge tube (CCFT). Next, 2V HESS with 10% fetal bovine serum […] was added and centrifuged at room temperature for 10′, 400×g at 1400 RPMs. The pellet was then resuspended in 5 ml 1-1ESS with PBS. The cell suspension was added to 50 ml CCFT containing 20 ml of ice cold 0.88% NH4 Cland inverted two to three times. The resulting product was centrifuged for 10′, 800×g at 2000 RPMs, then aspirated and resuspended in ml HBSS with FBS. The prep was examined by counting and cytospin and preferably for whole blood, the cell number should be between 10^9-10^11 cells and for PMNs, cell number should be between 2-4×10^7 cells. See generally, Wang et al., J. Immunol., “Neutrophil-induced changes in the biomechanical properties of endothelial cells: roles of ICAM-1 and reactive oxygen species,” 6487-94 (2000).
# MPO Colorimetric Enzyme Assay—Samples were assayed for MPO activity in 96 well round bottom microtiter plates using a sandwich ELISA kit (R & D Systems, Minneapolis, Minn.). Briefly, 20 microliters of sample is mixed with 180 microliters of substrate mixture containing 33 mM potassium phosphate, pH 6.0, […], 0.11 mM hydrogen peroxide, and 0.36 mM O-Diannisidine Dihydrochloride in an individual microtiter well. The final concentrations in the assay mixture are: 30 mM potassium phosphate, pH 6.0, 0.05% Triton X-100, 0.1 mM hydrogen peroxide, and 0.32 mM O-Diannisidine Dihydrochloride. […] Samples were assayed in duplicate.
# MARCKS protein = MARCKS protein level in NHBE cells (Western blot); assay type: cell-based, human; conditions: TNF-α 10 ng/ml 4 h
# Method: NHBE cells were treated with the antisense or the control oligonucleotide for 3 days and then stimulated with PMA (100 nM)+8-Br-cGMP (1 μM) for 15 min. Mucin secretion was analyzed by ELISA. Total RNA and protein were isolated from treated cells. MARCKS mRNA was assessed by Northern hybridization, and protein was assessed by Western blot. […] In this regard, MARCKS mRNA as a percent of control is shown in the following results which are designated as Results-I-3A-2:
# Antisense Oligonucleotides—MARCKS antisense oligonucleotide and its corresponding control oligonucleotide were synthesized at Biognostik GmbH (Gottingen, Germany). […] Cells were then incubated with secretagogues, and mucin secretion was measured by ELISA. […] MARCKS mRNA was assessed by Northern hybridization according to conventional procedures using human MARCKS cDNA as a probe. MARCKS protein level was determined by Western blot using purified anti-MARCKS IgG1 (clone 2F12) as the primary detection antibody.
# NHBE cells were incubated with 10 ng/ml human recombinant TNF-α or medium alone for 4 hrs, then stimulated with PMA (100 nM)+8-Br-cGMP (1 μM) for 15 min, or UTP (0.1 mM) for 2 hrs. Secreted mucin was collected and measured by ELISA. […] MARCKS mRNA was assessed by Northern hybridization, and protein by the Western Blot technique. […]
# [2] = peptide 1 μM + 100 nM PMA+10 μM 8-Br-cGMP, unstimulated control 0.10
# [3] = peptide 10 μM + 100 nM PMA+10 μM 8-Br-cGMP
molecule,measurement,setting,value
Nc1nc2c(nc(Br)n2[C@@H]2O[C@@H]3COP(=O)(O)O[C@H]3[C@H]2O)c(=O)[nH]1 [8-Br-cGMP],Absorbance reading at 450 nm (MPO secretion),[1]; 8-Br-cGMP 1 micromolar alone,approximately 0.078
same,Absorbance reading at 450 nm (MPO secretion),[1]; 8-Br-cGMP 10 micromolar alone,approximately 0.0835
CCCCCCCCCCCCCC(=O)NCC(=O)N[C@@H](C)C(=O)N[C@@H](CCC(N)=O)C(=O)N[C@@H](Cc1ccccc1)C(=O)N[C@@H](CO)C(=O)N[C@@H](CCCCN)C(=O)N[C@H](C(=O)N[C@@H](C)C(=O)N[C@@H](C)C(=O)N[C@@H](CCCCN)C(=O)NCC(=O)N[C@@H](CCC(=O)O)C(=O)N[C@@H](C)C(=O)N[C@@H](C)C(=O)N[C@@H](C)C(=O)N[C@@H](CCC(=O)O)C(=O)N[C@@H](CCCNC(=N)N)C(=O)N1CCC[C@H]1C(=O)NCC(=O)N[C@@H](CCC(=O)O)C(=O)N[C@@H](C)C(=O)N[C@@H](C)C(=O)N[C@H](C(=O)N[C@@H](C)C(=O)O)C(C)C)[C@@H](C)O [MANS peptide] (Myristoyl-GAQFSKTAAKGEAAAERPGEAAVA-OH; C-terminus assumed),Absorbance at 450 nm (MPO secretion),canine neutrophils; [2],0.25
same,Absorbance at 450 nm (MPO secretion),canine neutrophils; [3],0.09
"CCCCCCCCCCCCCC(=O)O[C@@H]1[C@@H](C)[C@@]2(O)[C@@H](C=C(CO)C[C@]3(O)C(=O)C(C)=C[C@@H]23)[C@@H]2C(C)(C)[C@]12OC(C)=O [PMA, phorbol 12-myristate 13-acetate]",Absorbance reading at 450 nm (MPO secretion),[1]; 100 nM PMA alone,0.078 and 0.0825
"CCCCCCCCCCCCCC(=O)NCC(=O)N[C@H](C(=O)N[C@@H](C)C(=O)N1CCC[C@H]1C(=O)N[C@@H](C)C(=O)N[C@@H](C)C(=O)N[C@@H](CCC(=O)O)C(=O)NCC(=O)N[C@@H](C)C(=O)NCC(=O)N[C@@H](C)C(=O)N[C@@H](CCC(=O)O)C(=O)N[C@H](C(=O)N[C@@H](CCCCN)C(=O)N[C@@H](CCCNC(=N)N)C(=O)N[C@@H](C)C(=O)N[C@@H](CO)C(=O)N[C@@H](C)C(=O)N[C@@H](CCC(=O)O)C(=O)N[C@@H](C)C(=O)N[C@@H](CCCCN)C(=O)N[C@@H](CCC(N)=O)C(=O)N[C@@H](C)C(=O)N[C@@H](Cc1ccccc1)C(=O)O)C(C)C)[C@@H](C)O [RNS peptide, reference compound] (Myristoyl-GTAPAAEGAGAEVKRASAEAKQAF-OH; C-terminus assumed)",Absorbance at 450 nm (MPO secretion),canine neutrophils; [2],0.32
same,Absorbance at 450 nm (MPO secretion),canine neutrophils; [3],0.30
TNF-α,Increase in MARCKS protein vs medium only (Western blot),MARCKS protein,three- to four-fold increase
same,MARCKS protein level relative to control,MARCKS protein; then PMA 100 nM+8-Br-cGMP 1 μM 15 min,352%
